Experiments:
total tau (Tau5) = test: Tau immunoblot of brain lysate, insoluble fraction, total tau; assay type: in vivo, mouse; conditions: LMTM 15 mg/kg oral vs. vehicle; decrease (in parentheses)
Procedure: • (1) Pellets remaining after moving the supernatant (soluble fraction) were dispersed in 1 mL of 1M sucrose, DNase I (conc. 1 mg/mL) in RIPA buffer. • (2) After centrifugation at 4°C with a speed of 13,000 rpm for 20 minutes, the supernatant was removed. • (3) After resuspension of pellets in 2% SDS solution (1 mL per gram of tissue), the mixture was subjected to incubation at room temperature for 1 hour. • (4) After centrifugation at room temperature with a speed of 13,000 rpm for 1 minute, the supernatant (insoluble fraction) was collected and moved to a new ep-tube, and the same amount of 2X SDS Laemmli sample buffer (w/ 2.5% β-mercaptoethanol for reducing condition) was added thereto. • (5) The sample was boiled at 97°C for 5 minutes. […]

mouse Tau (mTau) = test: Tau immunoblot of brain lysate, soluble fraction, mTau; assay type: in vivo; conditions: LMTM 15 mg/kg oral vs. vehicle, decrease (in parentheses)
Procedure: • (1) After completing administration, the mice of TauP301L-BiFC mouse model were anesthetized, followed by preparing heart laparotomy. • (2) Saline was introduced to the heart of each mouse in the TauP301L-BiFC mouse model, followed by removing vivo blood using a perfusion pump machine. • (3) After removing the blood, the brain was extracted and weighed. • (4) 1 mL RIPA buffer (w/protease/phosphatase inhibitor cocktail) was added to the extracted brain, followed by homogenization. • (5) After moving the homogenized brain lysate to an ep-tube, it was subjected to incubation in 4°C orbital shaker for 2 hours. • (6) After centrifugation at 4°C with a speed of 13,000 rpm for 20 minutes, the supernatant (soluble fraction) was collected in a new ep-tube and stored at -80°C • (7) In order to prepare an immunoblot sample, the concentration of a soluble fraction sample was quantified by Bradford protein quantification method. • (8) To each sample, RIPA buffer and 4X SDS Laemmli sample buffer (w/ 2.5% β-mercaptoethanol for reducing condition) were added to reach a final concentration of 2 mg/mL. • (9) The sample was boiled at 97°C for 5 minutes. […]

TauP301L-BiFC mice = test: Rota-rod test (motor ability) in 4R TauP301L-BiFC mouse model; assay type: in vivo
Procedure: • (1) After carrying out adaptation training for 3 days, a behavior experiment was performed on day 4. • (2) 1 hour before the experiment, a time for adaptation of experimental mice in a space where the behavior experiment is conducted, should be ensured. • (3) During the period for adaptation training, each mouse is forced to walk on a treadmill for 360 seconds at a speed of 5 rpm, 15 rpm, 20/25 rpm. Here, an experimental mouse losing a balance and fallen to the floor was forced to walk again. • (4) After the adaptation training, the behavior experiment was conducted by gradually increasing the speed from 5 rpm to 35 rpm for 480 seconds. When the treadmill worked, a time (seconds) taken until the experimental mouse lost the balance and fallen to the floor was measured.
Results of evaluating motor ability improvement efficacy through a Rota-rod test in a 4R TauP301L-BiFC mouse model were shown in Table 4 below and FIG. 2. Using a TauP301L-BiFC mouse model including 7- to 12-month-old mice administered with the drug for 5 months, the experiment was conducted. The results were analyzed through bidirectional ANOVA using Tukey's multiple-comparisons (*p<0.05; **p<0.01; n.s.: Insignificant for vehicle).

CN(C)c1ccc2c(c1)Sc1cc(N(C)C)ccc1N2.CS(=O)(=O)O.CS(=O)(=O)O [LMTM]
Insoluble fraction, Total tau (total tau (Tau5)): (42%) | Soluble fraction, Phosphorylated tau, mTau (pS199) (mouse Tau (mTau); ***p<0.001): (34%)** * | Soluble fraction, Total tau, mTau (mouse Tau (mTau); **p<0.01): (24%)** | Soluble fraction, Phosphorylated tau, mTau (pS396) (mouse Tau (mTau); *p<0.05): (27%)* | Duration (Rota-rod test on 11.9 months) (TauP301L-BiFC mice; LMTM 15 mg/kg oral vs. vehicle, improvement): 57% | exercise performance (Rota-rod treadmill), in words (TauP301L-BiFC mice; LMTM 15 mg/kg vs. vehicle, mice administered 59 times): exercise performance tended to improve, however, did not show a significant difference

— patent publication EP4595972A1, “PEPTIDE FOR TREATING OR PREVENTING 4R TAUOPATHY” (GemVax & KAEL Co., Ltd., priority 2022, dated 2024)
